Reference: paper PMC4979877 (2016)

Test system: non-cognate duplex (DNA, duplex) GGGTGAGGAGGAGGGAGATCGGTC/TGACCGATCTCCCTCCTCCTCACCC
Experiment: fluorescence titration
Conditions: 0.025 M Tris-HCl, pH 7.5, room temperature; probe 12 µM; fluorescence only 1.5-fold up

binding: weak
Compound: CN(C)CCCNC(=O)CCNC(=O)c1cc(NC(=O)c2cc(NC(=O)c3cc(NC(=O)c4cc(NC(=O)C(N)CCNC(=O)c5cc(NC(=O)c6cc(NC(=O)c7cc(NC(=O)c8nc(NC(=O)CCCNC(=O)CCc9cn(-c%10cc%11ccc(O)cc%11oc%10=O)nn9)cn8C)cn7C)cn6C)cn5C)cn4C)cn3C)cn2C)cn1C (stereo not shown)
